Experimental data published in US20230013823A1, “INHIBITORS OF HUMAN IMMUNODEFICIENCY VIRUS REPLICATION” (VIV HEALTHCARE UK (No. 5) LIMITED, priority 2019, published 2023).

Columns and labels:
[1] = Compound cytotoxicity, XTT-based colorimetric assay; assay type: cell-based; settings: human; uninfected MT2 cells, day 4, XTT
Protocol: Compound cytotoxicity and the corresponding CC50 values were determined using the same protocol as described in the antiviral assay except that uninfected cells were used. Cytotoxicity was assessed on day 4 in uninfected MT2 cells by using an XTT (2,3-bis[2-Methoxy-4-nitro-5-sulfophenyl]-2H-tetrazolium-5-carboxyanilide inner salt)-based colorimetric assay (Sigma-Aldrich, St Louis, Mo.).

[2] = test system: recombinant NL4-3 virus (Renilla luciferase in nef); assay: HIV cell culture assay (antiviral activity, luciferase readout in MT-2 cells); assay type: cell-based; settings: Renilla, NL43
Method in brief: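 MT-2 cells were infected for 4-5 days with 293T-derived recombinant NL4-3 reporter virus in the presence of serially diluted compound. Antiviral activity was quantified as luciferase activity using a live-cell substrate. EC50 was derived from the median effect equation.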

Compound	CC50 at 4 days [1] [nM]	EC50 [2] [nM]
Cn1nc(NS(C)(=O)=O)c2c(Cl)ccc(-n3c([C@H](Cc4cc(F)cc(F)c4)NC(=O)Cn4nc(C(F)F)c5c4C(F)(F)[C@@H]4C[C@H]54)nc4cc(-c5cnn(CCF)c5)ccc4c3=O)c21 (atropisomer, axis not shown; (P)) [Example 42, N—((S)-1-((3P)-3-(4-chloro-1-methyl-3-(methylsulfonamido)-1H-indazol-7-yl)-7-(1-(2-fluoroethyl)-1H-pyrazol-4-yl)-4-oxo-3,4-dihydroquinazolin-2-yl)-2-(3,5-difluorophenyl)ethyl)-2-((3bS,4aR)-3-(difluoromethyl)-5,5-difluoro-3b,4,4a,5-tetrahydro-1H-cyclopropa[3,4]cyclopenta[1,2-c]pyrazol-1-yl)acetamide]	> 100	0.068
Cn1nc(NS(C)(=O)=O)c2c(Cl)ccc(-n3c([C@H](Cc4cc(F)cc(F)c4)NC(=O)Cn4nc(C(F)F)c5c4C(F)(F)[C@H]4C[C@@H]54)nc4cc(-c5ccnn5C5CC5)ccc4c3=O)c21 (atropisomer, axis not shown; (P)) [Example 43, N—((S)-1-((3P)-3-(4-chloro-1-methyl-3-(methylsulfonamido)-1H-indazol-7-yl)-7-(1-cyclopropyl-1H-pyrazol-5-yl)-4-oxo-3,4-dihydroquinazolin-2-yl)-2-(3,5-difluorophenyl)ethyl)-2-((3bS,4aR)-3-(difluoromethyl)-5,5-difluoro-3b,4,4a,5-tetrahydro-1H-cyclopropa[3,4]cyclopenta[1,2-c]pyrazol-1-yl)acetamide]	> 100	0.13
Cn1nc(NS(C)(=O)=O)c2c(Cl)ccc(-n3c([C@H](Cc4cc(F)cc(F)c4)NC(=O)Cn4nc(C(F)F)c5c4C(F)(F)[C@@H]4C[C@H]54)nc4cc(-c5ccc6ncsc6c5)ccc4c3=O)c21 (atropisomer, axis not shown; (P)) [Example 44, N—((S)-1-(7-(benzo[d]thiazol-6-yl)-(3P)-3-(4-chloro-1-methyl-3-(methylsulfonamido)-1H-indazol-7-yl)-4-oxo-3,4-dihydroquinazolin-2-yl)-2-(3,5-difluorophenyl)ethyl)-2-((3bS,4aR)-3-(difluoromethyl)-5,5-difluoro-3b,4,4a,5-tetrahydro-1H-cyclopropa[3,4]cyclopenta[1,2-c]pyrazol-1-yl)acetamide]	> 100	0.61
Cn1nc(NS(C)(=O)=O)c2c(Cl)ccc(-n3c([C@H](Cc4cc(F)cc(F)c4)NC(=O)Cn4nc(C(F)F)c5c4C(F)(F)[C@@H]4C[C@H]54)nc4cc(-c5ccc6scnc6c5)ccc4c3=O)c21 (atropisomer, axis not shown; (P)) [Example 45, N—((S)-1-(7-(benzo[d]thiazol-5-yl)-(3P)-3-(4-chloro-1-methyl-3-(methylsulfonamido)-1H-indazol-7-yl)-4-oxo-3,4-dihydroquinazolin-2-yl)-2-(3,5-difluorophenyl)ethyl)-2-((3bS,4aR)-3-(difluoromethyl)-5,5-difluoro-3b,4,4a,5-tetrahydro-1H-cyclopropa[3,4]cyclopenta[1,2-c]pyrazol-1-yl)acetamide]	> 100	0.44
Cn1nc(NS(C)(=O)=O)c2c(Cl)ccc(-n3c([C@H](Cc4cc(F)cc(F)c4)NC(=O)Cn4nc(C(F)F)c5c4C(F)(F)[C@@H]4C[C@H]54)nc4cc(-c5ccc6ocnc6c5)ccc4c3=O)c21 (atropisomer, axis not shown; (P)) [Example 46, N—((S)-1-(7-(benzo[d]oxazol-5-yl)-(3P)-3-(4-chloro-1-methyl-3-(methylsulfonamido)-1H-indazol-7-yl)-4-oxo-3,4-dihydroquinazolin-2-yl)-2-(3,5-difluorophenyl)ethyl)-2-((3bS,4aR)-3-(difluoromethyl)-5,5-difluoro-3b,4,4a,5-tetrahydro-1H-cyclopropa[3,4]cyclopenta[1,2-c]pyrazol-1-yl)acetamide]	> 100	0.34
Cn1nc(NS(C)(=O)=O)c2c(Cl)ccc(-n3c([C@H](Cc4cc(F)cc(F)c4)NC(=O)Cn4nc(C(F)F)c5c4C(F)(F)[C@@H]4C[C@H]54)nc4cc(-c5ccn(CC(F)(F)C(F)F)n5)ccc4c3=O)c21 (atropisomer, axis not shown; (P)) [Example 47, N—((S)-1-((3P)-3-(4-chloro-1-methyl-3-(methylsulfonamido)-1H-indazol-7-yl)-4-oxo-7-(1-(2,2,3,3-tetrafluoropropyl)-1H-pyrazol-3-yl)-3,4-dihydroquinazolin-2-yl)-2-(3,5-difluorophenyl)ethyl)-2-((3bS,4aR)-3-(difluoromethyl)-5,5-difluoro-3b,4,4a,5-tetrahydro-1H-cyclopropa[3,4]cyclopenta[1,2-c]pyrazol-1-yl)acetamide]	> 100	0.07
Cn1nc(NS(C)(=O)=O)c2c(Cl)ccc(-n3c([C@H](Cc4cc(F)cc(F)c4)NC(=O)Cn4nc(C(F)F)c5c4C(F)(F)[C@@H]4C[C@H]54)nc4cc(-c5ccn(CC(F)(F)C(F)(F)F)n5)ccc4c3=O)c21 (atropisomer, axis not shown; (P)) [Example 48, N—((S)-1-((3P)-3-(4-chloro-1-methyl-3-(methylsulfonamido)-1H-indazol-7-yl)-4-oxo-7-(1-(2,2,3,3,3-pentafluoropropyl)-1H-pyrazol-3-yl)-3,4-dihydroquinazolin-2-yl)-2-(3,5-difluorophenyl)ethyl)-2-((3bS,4aR)-3-(difluoromethyl)-5,5-difluoro-3b,4,4a,5-tetrahydro-1H-cyclopropa[3,4]cyclopenta[1,2-c]pyrazol-1-yl)acetamide]	> 100	0.091
CCC(F)(F)Cn1ccc(-c2ccc3c(=O)n(-c4ccc(Cl)c5c(NS(C)(=O)=O)nn(C)c45)c([C@H](Cc4cc(F)cc(F)c4)NC(=O)Cn4nc(C(F)F)c5c4C(F)(F)[C@@H]4C[C@H]54)nc3c2)n1 (atropisomer, axis not shown; (P)) [Example 49, N—((S)-1-((3P)-3-(4-chloro-1-methyl-3-(methylsulfonamido)-1H-indazol-7-yl)-7-(1-(2,2-difluorobutyl)-1H-pyrazol-3-yl)-4-oxo-3,4-dihydroquinazolin-2-yl)-2-(3,5-difluorophenyl)ethyl)-2-((3bS,4aR)-3-(difluoromethyl)-5,5-difluoro-3b,4,4a,5-tetrahydro-1H-cyclopropa[3,4]cyclopenta[1,2-c]pyrazol-1-yl)acetamide]	> 100	0.081
Cn1nc(NS(C)(=O)=O)c2c(Cl)ccc(-n3c([C@H](Cc4cc(F)cc(F)c4)NC(=O)Cn4nc(C(F)F)c5c4C(F)(F)[C@@H]4C[C@H]54)nc4cc(-c5ccn(CCC(F)(F)F)n5)ccc4c3=O)c21 (atropisomer, axis not shown; (P)) [Example 50, N—((S)-1-((3P)-3-(4-chloro-1-methyl-3-(methylsulfonamido)-1H-indazol-7-yl)-4-oxo-7-(1-(3,3,3-trifluoropropyl)-1H-pyrazol-3-yl)-3,4-dihydroquinazolin-2-yl)-2-(3,5-difluorophenyl)ethyl)-2-((3bS,4aR)-3-(difluoromethyl)-5,5-difluoro-3b,4,4a,5-tetrahydro-1H-cyclopropa[3,4]cyclopenta[1,2-c]pyrazol-1-yl)acetamide]	> 100	0.066
Cn1nc(NS(C)(=O)=O)c2c(Cl)ccc(-n3c([C@H](Cc4cc(F)cc(F)c4)NC(=O)Cn4nc(C(F)F)c5c4C(F)(F)[C@@H]4C[C@H]54)nc4cc(-c5ccn(CCCF)n5)ccc4c3=O)c21 (atropisomer, axis not shown; (P)) [Example 51, N—((S)-1-((3P)-3-(4-chloro-1-methyl-3-(methylsulfonamido)-1H-indazol-7-yl)-7-(1-(3-fluoropropyl)-1H-pyrazol-3-yl)-4-oxo-3,4-dihydroquinazolin-2-yl)-2-(3,5-difluorophenyl)ethyl)-2-((3bS,4aR)-3-(difluoromethyl)-5,5-difluoro-3b,4,4a,5-tetrahydro-1H-cyclopropa[3,4]cyclopenta[1,2-c]pyrazol-1-yl)acetamide]	> 100	0.042
Cn1nc(NS(C)(=O)=O)c2c(Cl)ccc(-n3c([C@H](Cc4cc(F)cc(F)c4)NC(=O)Cn4nc(C(F)F)c5c4C(F)(F)[C@@H]4C[C@H]54)nc4cc(-c5ccn(CCC(C)(F)F)n5)ccc4c3=O)c21 (atropisomer, axis not shown; (P)) [Example 52, N—((S)-1-((3P)-3-(4-chloro-1-methyl-3-(methylsulfonamido)-1H-indazol-7-yl)-7-(1-(3,3-difluorobutyl)-1H-pyrazol-3-yl)-4-oxo-3,4-dihydroquinazolin-2-yl)-2-(3,5-difluorophenyl)ethyl)-2-((3bS,4aR)-3-(difluoromethyl)-5,5-difluoro-3b,4,4a,5-tetrahydro-1H-cyclopropa[3,4]cyclopenta[1,2-c]pyrazol-1-yl)acetamide]	> 100	0.068
Cn1nc(NS(C)(=O)=O)c2c(Cl)ccc(-n3c([C@H](Cc4cc(F)cc(F)c4)NC(=O)Cn4nc(C(F)F)c5c4C(F)(F)[C@@H]4C[C@H]54)nc4cc(-c5ccn(CCCC(F)(F)F)n5)ccc4c3=O)c21 (atropisomer, axis not shown; (P)) [Example 53, N—((S)-1-((3P)-3-(4-chloro-1-methyl-3-(methylsulfonamido)-1H-indazol-7-yl)-4-oxo-7-(1-(4,4,4-trifluorobutyl)-1H-pyrazol-3-yl)-3,4-dihydroquinazolin-2-yl)-2-(3,5-difluorophenyl)ethyl)-2-((3bS,4aR)-3-(difluoromethyl)-5,5-difluoro-3b,4,4a,5-tetrahydro-1H-cyclopropa[3,4]cyclopenta[1,2-c]pyrazol-1-yl)acetamide]	> 100	0.1
